In patent US4339379A, “N-Acrylcarnosine aluminum salts” (Nippon Chemiphar Co., Ltd., priority 1979, dated 1982):
Values joined by “and” are separate entries in the source; they are usually repeats but may differ in a detail not shown here. Equal entries are not always repeated.

How the values were obtained:
[1] = tested on: Indomethacin-induced ulcer; assay: Indomethacin-induced ulcer in rats; assay type: in vivo, male Donryu strain rats; conditions: for Ulcer index: Indomethacin (25 mg/kg s.c.)-induced ulcer, 300 mg/kg P.O. ten minutes before pylorus ligation, total length of lesions
Method: Indomethacin-induced ulcer: Groups of ten male Donryu strain rats each weighing 200 to 215 g were deprived of food for 24 hours. Then, the pylorus was ligated under ether anethesia, after which indomethacin was administered subcutaneously in an amount of 25 mg/kg to each rat. Seven hours after the administration, each of the animals was sacrificed under ether anethesia to remove its stomach, followed by immersion in a 1% formalin solution for ten minutes. The stomach which had been semi-fixed was incised along its greater curvature, and the length (mm) of each lesion formed in the mucous membrane was measured under a dissecting microscope (10×). The total length (mm) of all the lesions of each rat was indicated as an ulcer index. Test medicine samples were given orally ten minutes before the pylorus legation.

Shay's ulcer = Shay's ulcer (pylorus ligation) in rats; assay type: in vivo, male Donryu strain rats; conditions: for Ulcer index: total ulcerated area in forestomach
Method: Shay's ulcer: Groups of ten male Donryu strain rats each weighing 210 to 230 g were deprived of food for 48 hours. The pylorus of each rat was ligated according to the method of Shay et al [Gastroenterology, 5, 43-61 (1945)]. Each of the animals was allowed to stand abstained from food and water for further 14 hours and then sacrificed to remove its stomach. After collection of the gastric juice, the ulcerated area (mm^2) in the forestomach of each rat was measured under a dissecting microscope (10×). The total area (mm^2) of all the lesions of each rat was indicated as an ulcer index. Test medicine samples were given orally immediately after the pylorus ligation.

[2] = Indomethacin-induced ulcer, 300 mg/kg P.O.
[3] = rats, 1,000 mg/kg P.O. immediately after pylorus ligation

Molecule	Ulcer index [1] [mm]	% Inhibition [1, 2]	inhibition at 300 mg/kg ([1]; Rattus norvegicus, po, Indomethacin-induced ulcer, 300 mg/kg P.O.) [%]	inhibition at 2000 mg/kg (Shay's ulcer; Rattus norvegicus, po, rats, 2,000 mg/kg P.O.) [%]	% Inhibition (Shay's ulcer; rats, 2,000 mg/kg P.O.) [%]	Ulcer index (Shay's ulcer; rats, 2,000 mg/kg P.O. immediately after pylorus ligation)	% Inhibition (Shay's ulcer; rats, 1,000 mg/kg P.O.)	Ulcer index (Shay's ulcer; [3])
NCCC(=O)N[C@@H](Cc1cnc[nH]1)C(=O)O [L-Carnosine, L-carnosine]	17.1 ± 3.1	~ 0%						
NC(=O)CC[C@H](N)C(=O)O [L-Glutamine, L-glutamine]	9.7 ± 3.9		42.3					
CC(=O)N[C@@H](CCC(N)=O)C(=O)O.[Al] [N-Acetyl-L-glutamine aluminum, N-acetyl-L-glutamine aluminum]				69	67.7	0.9 ± 0.7 mm^2 and 1.0 ± 0.6 mm^2		
N-acetyl-DL-carnosine aluminum salt	6.7 ± 3.0	60.1%					75.9%	0.7 ± 0.8 mm^2
N-acetyl-L-carnosine aluminum salt [B]	6.5 ± 2.5	61.3%					72.4%	0.8 ± 0.6 mm^2
N-propionyl-L-carnosine aluminum salt							74.2%	0.8 ± 0.8 mm^2
aluminum sucrose sulfate	7.4 ± 2.8	56.0%					72.4% and 71.0%	0.8 ± 0.6 mm^2 and 0.9 ± 0.5 mm^2
